Measured values taken from patent EP0262209B1, “SYNERGISTIC PLANT GROWTH REGULATOR COMPOSITIONS” (RHONE POULENC NEDERLAND B.V., priority 1986, dated 1987).

Legend:
snapbean plants [1] = assay: Defoliation of snapbean plants with various ethylene releasing agents (Example XVI, Table M); format: in vivo, Phaseolus vulgaris var. Cranberry
Procedure: (§1) Solutions of the test compounds and compositions identified in Table C below were prepared by dissolving the compounds in acetone/water (50:50 volume/volume) containing 0.1 percent volume/volume of Triton X-100 surfactant commercially available from Rhom and Haas Company, Philadelphia, Pennsylvania. As detailed below, these solutions of the test compounds and compositions were applied to snapbean plants at a concentration of 0.25 pounds of each active ingredient per acre (0.28 kg/ha) or 0.50 pounds of each active ingredient per acre (0.56 kg/ha). The compositions were applied to the snapbean plants as a mixture. Ethephon is commercially available from Union Carbide Agricultural Products Company, Inc., Research Triangle Park, North Carolina.
(§2) Into 13.5 centimeter diameter plastic pots containing a potting soil mix, i.e., one-third sandy loam soil, one-third peat moss and one-third perlite by volume, were sown three snapbean seeds (Phaseolus vulgaris var. Cranberry). Five to seven days after planting, the plants were thinned to one plant per pot. Ten to fourteen days after planting at the time of full expansion of the primary leaves, each concentration of the test compounds and compositions identified in […] (each pot sprayed with a volume equivalent to 180 gallons per acre) - i.e. 1683 l/ha was applied to three snapbean plants as a foliar spray by use of an aspirated spray apparatus set at 10 psig air pressure (517 mmHg). As a control, a water-acetone solution containing no test compound or composition was also sprayed on three snapbean plants. When dry, all or the plants were placed in a greenhouse at a temperature of 80°F ± 5°F (27°C ± 3°C) and humidity of 50 percent ± 5 percent. At 96 hours after treatment, percent defoliation of the snapbean plants was determined by visual observation. The values obtained For the control and each test compound and composition were averaged to obtain the results in Table C.
In a manner similar to the procedure described in Example VI , the defoliation effect on snapbean plants was determined for representative synergistic compositions at various rates of application using various ethylene releasing agents identified in Table M below. The ethylene releasing agents used in […] are known materials which can be prepared by conventional methods.

cotton [2] = assay: Defoliation of cotton at various rates (Example XII, Table I); format: in vivo; settings: Rate 0.5 Pounds per Acre, alone
Procedure: (§3) Solutions of the test compounds and compositions identified in Table F were prepared by dissolving the compounds in acetone/water (50:50 volume/volume) containing 0.1 percent volume/volume of Surfel® spray adjuvant commercially available from Union Carbide Corporation, Danbury, Connecticut. As detailed below, these solutions of test compounds and compositions were applied to cotton plants at a concentration of 0.5 pounds of each active ingredient per acre (0,6 kg/ha) or 2.0 pounds of active ingredient per acre (2,2 kg/ha). The compositions were applied to cotton as mixtures.
(§4) The above solutions were applied to cotton plants growing under field conditions at a spray volume equivalent to 100 gallons per acre 935 l/ha) by use of a carbon dioxide backpack sprayer set at about 30 psig air pressure (2 bar). The application timing coincided with a cotton maturity phase equivalent to about 40 percent open bolls. As a control, a water-acetone solution containing no test compound or composition was also sprayed on the cotton plants. At four days after treatment, percent defoliation of the cotton plants was determined by visual observation. At 14 days after treatment, percent boll opening was determined by visual observation of the number of open bolls/total number of bolls. The percent defoliation and percent boll opening values obtained for the control and each of the test compounds and compositions are reported in Table F as the average of three replications. TABLE F
In a manner similar to the procedure described in Example IX , the defoliation effect on cotton was determined for representative synergistic compositions at various rates of application.

snapbean plants [3] = assay: Defoliation of snapbean plants, foliar spray (Example VI, Table C); format: in vivo, Phaseolus vulgaris var. Cranberry; settings: Phaseolus vulgaris, foliar spray, 96 hours after treatment, read-out: Percent Defoliation; for pest or weed control at 280.212 g/ha: Rate 0.25 Pounds per Acre; for pest or weed control at 560.425 g/ha: Rate 0.50 Pounds per Acre
Procedure: as §1, §2

cotton plants = assay: Defoliation and boll opening of cotton under field conditions (Example IX, Table F); format: in vivo; set-up: key to Percent Boil Opening: *: Percent boll opening essentially the same as the control as determined by visual observation; settings: Rate 2.0 Pounds per Acre; for Percent Boil Opening: 14 days after treatment, result given by footnote symbol, control 41; for Percent Defoliation: field conditions, four days after treatment
Procedure: as §3, §4

cotton [4] = assay: Sequential applications, defoliation of cotton (Example XI, Table H); format: in vivo; settings: alone
Procedure: In a manner similar to the procedure described in Example VI , the defoliation effect on snapbean plants was determined for representative synergistic compositions using both combination (tank mix) and sequential application methods. In the sequential application method, the second compound was applied 78 hours after the first compound. TABLE E
In a manner similar to the procedure described in Example VIII , the defoliation effect on cotton was determined for representative synergistic compositions using sequential application. Ethephon applications were made 7 days after application of the particular malonic acid derivative compound. TABLE H

rank growth cotton = assay: Defoliation of cotton (rank growth) (Example X, Table G); format: in vivo; settings: Rate 2.0 Pounds per Acre
Procedure: as §3, §4
In a manner similar to the procedure described in Example IX , the defoliation effect on rank growth cotton was determined for representative synergistic compositions at various rates of application. […] TABLE G

mature tobacco plants = assay: Leaf ripening (chlorosis) of tobacco (Example XV, Table L); format: in vivo; settings: Rate 1.0 Pounds per Acre, alone; upper three leaves; 7 days after treatment; control 10
Procedure: as §1, with “Ethephon is commercially available from Union Carbide Agricultural Products Company, Inc., Research Triangle Park, North Carolina.” left out
(§5) Into 13.5 centimeter diameter plastic pots containing a potting soil mix, i.e., one-third sandy loam soil, one-third peat moss and one-third perlite by volume, were sown three snapbean seeds (Phaseolus vulgaris var. Cranberry). […] At 96 hours after treatment, percent defoliation of the snapbean plants was determined by visual observation. […]
In a manner similar to the procedure described in Example VI except that mature tobacco plants were used in place of snapbean plants, the leaf ripening effect of tobacco was determined for representative synergistic compositions at various rates of application. […] Percent tobacco leaf ripening (chlorosis) was determined by visual observation of the upper three leaves of the tobacco plant at 7 days after treatment. […]

snapbean plants [5] = assay: Combination/sequential applications, defoliation of snapbean plants (Example VIII, Table E); format: in vivo, Phaseolus vulgaris var. Cranberry; settings: Rate 0.5 Pounds per Acre, applied alone
Procedure: as §1
as §5, with “Cranberry). Five to seven days after planting, the plants were thinned to one plant per pot.” for “Cranberry).”
In a manner similar to the procedure described in Example VI , the defoliation effect on snapbean plants was determined for representative synergistic compositions using both combination (tank mix) and sequential application methods. […]

snapbean plants [6] = assay: Defoliation of snapbean plants at various rates, 72 hours (Example VII, Table D); format: in vivo, Phaseolus vulgaris var. Cranberry; settings: 72 hours after treatment
Procedure: as §1, §2
In a manner similar to the procedure described in Example VI, the defoliation effect on snapbean plants was determined for representative synergistic compositions at various rates of application except that percent defoliation of the snapbean plants was determined at 72 hours after treatment. TABLE D

cotton plant = assay: Regrowth of cotton following defoliation, DEF treated plant as standard (Example XIV, Table K); format: in vivo; settings: regrowth relative to DEF standard (43 percent), Rate 0.5 Pounds per Acre, 30 days after treatment; for inhibition at 560.425 g/ha: Gossypium hirsutum, 720 h, read-out: Percent Inhibition
Procedure: as §3, §4
In a manner similar to the procedure described in Example IX , the effect of cotton regrowth after defoliation was determined for representative synergistic compositions at various rates of application. The percent regrowth inhibition and stimulation in Table R below were determined by visual observation based on the percent of a cotton plant having regrowth using a DEF treated cotton plant as the standard. DEF is commercially available from Mobay Chemical Corporation, Kansas City, Missouri. The average regrowth of a cotton plant treated with DEF was 43 percent. As used in Table R, percent regrowth inhibition resulted from a cotton plant having a regrowth percentage less than 43 percent (DEF standard), and percent regrowth stimulation resulted from a cotton plant having a regrowth percentage greater than 43 percent. The percent regrowth inhibition and stimulation were determined 30 days after treatment.

cotton [7] = assay: Defoliation of cotton at various rates (Example XIII, Table J); format: in vivo; settings: alone
Procedure: as §3, §4
In a manner similar to the procedure described in Example IX , the defoliation effect on cotton was determined for representative synergistic compositions at various rates of application. TABLE J

snapbean plants [8] = assay: Abscission of snapbean plant leaves with ethylene gas exposure (Example XVII, Table N); format: in vivo, Phaseolus vulgaris var. Cranberry
[9] = Concentration 125 ppm foliar spray
[10] = Concentration 250 ppm foliar spray

O=P(O)(CCCl)OCCCl [2-Chloroethyl ester of 2-chloroethylphosphonic acid]
0%: Percent Defoliation (snapbean plants [1]; Rate 0.125 Pounds per Acre) | Percent Defoliation (snapbean plants [1]; Rate 0.25 Pounds per Acre) | Percent Defoliation (snapbean plants [1]; Rate 0.50 Pounds per Acre)

NP(N)(=O)CCCl [2-Chloroethylphosphonic diamide]
0%: Percent Defoliation (snapbean plants [1]; Rate 0.125 Pounds per Acre) | Percent Defoliation (snapbean plants [1]; Rate 0.25 Pounds per Acre) | Percent Defoliation (snapbean plants [1]; Rate 0.50 Pounds per Acre)

CCOC(=O)C1(C(=O)Nc2cc(Cl)c(Cl)cc2C)CC1 [Compound 77, ethyl 1-(2-methyl-4,5-dichlorophenylaminocarbonyl)cyclopropanecarboxylate]
0%: Percent Defoliation (cotton [2])

CCOC(=O)C1(C(=O)Nc2ccc(Cl)cc2Cl)CC1 [Compound 80]
0%: pest or weed control at 280.212 g/ha (snapbean plants [3]) | pest or weed control at 560.425 g/ha (snapbean plants [3])

CCOC(=O)C1(C(=O)Nc2ccc(Cl)cc2F)CC1 [Compound 82]
0%: pest or weed control at 280.212 g/ha (snapbean plants [3]) | pest or weed control at 560.425 g/ha (snapbean plants [3])

CCOC(=O)C1(C(=O)Nc2ccc(Br)cc2Cl)CC1 [Compound 88]
0%: pest or weed control at 280.212 g/ha (snapbean plants [3]) | pest or weed control at 560.425 g/ha (snapbean plants [3])

CCOC(=O)C1(C(=O)Nc2ccc(Br)c(Cl)c2)CC1 [Compound 90]
0%: pest or weed control at 280.212 g/ha (snapbean plants [3]) | pest or weed control at 560.425 g/ha (snapbean plants [3])

CCOC(=O)C1(C(=O)Nc2ccc(Br)cc2C)CC1 [Compound 96]
0%: pest or weed control at 280.212 g/ha (snapbean plants [3]) | pest or weed control at 560.425 g/ha (snapbean plants [3]) | Percent Defoliation (cotton plants) | Percent Defoliation (cotton [4]; Rate 0.5 Pounds per Acre) | Percent Defoliation (cotton [4]; Rate 1.0 Pounds per Acre) | Percent Defoliation (rank growth cotton) | Percent Defoliation (snapbean plants [5]) | Percent Defoliation (snapbean plants [6]; Rate 0.25 Pounds per Acre) | Percent Defoliation (snapbean plants [6]; Rate 0.50 Pounds per Acre) | inhibition at 560.425 g/ha (cotton plant) | Percent Stimulation (cotton plant) | Percent Defoliation (cotton [2])
*: Percent Boil Opening (cotton plants)
10%: Percent Ripening (Chlorosis) (mature tobacco plants)

Cc1cc(Cl)c(Cl)cc1NC(=O)C1(C(=O)O)CC1 [Compound 110, 1-(2-methyl-4,5-dichlorophenylaminocarbonyl)cyclopropanecarboxylic acid]
0%: Percent Defoliation (cotton [2])

Cc1cc(Br)ccc1NC(=O)C1(C(=O)O)CC1 [Compound 111]
0%: pest or weed control at 280.212 g/ha (snapbean plants [3]) | pest or weed control at 560.425 g/ha (snapbean plants [3]) | Percent Defoliation (cotton [7]; Rate 0.25 Pounds per Acre) | Percent Defoliation (cotton [7]; Rate 0.5 Pounds per Acre) | Percent Defoliation (cotton plants) | Percent Defoliation (snapbean plants [1]; Rate 0.125 Pounds per Acre) | Percent Defoliation (snapbean plants [1]; Rate 0.25 Pounds per Acre) | Percent Defoliation (snapbean plants [1]; Rate 0.50 Pounds per Acre) | Percent Abscission 48 Hours (snapbean plants [8]; [9]) | Percent Defoliation (cotton [4]; Rate 0.5 Pounds per Acre) | Percent Defoliation (cotton [4]; Rate 1.0 Pounds per Acre) | Percent Defoliation (rank growth cotton) | inhibition at 560.425 g/ha (cotton plant) | Percent Stimulation (cotton plant)
*: Percent Boil Opening (cotton plants)
17%: Percent Abscission 96 Hours (snapbean plants [8]; [9])
33%: Percent Abscission 48 Hours (snapbean plants [8]; [10])
50%: Percent Abscission 96 Hours (snapbean plants [8]; [10])
